In ChEMBL document CHEMBL1201862, “PubChem BioAssay data set” (2004):
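Cultured in 96-well plates, cells were exposed to test compound for 48 hours across five concentrations. The concentration for 50% growth inhibition is given as GI50.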 Active and inactive are the calls of the source. Cut-off read from the data, not from the text of the source: active = GI50 up to about 1.1 µM and inactive = higher.

Legend:
Experiment in all cases: NCI-60 cell line screen, 48 h
CAKI-1 = tested on: CAKI-1
CCRF-CEM = tested on: CCRF-CEM
EKVX = tested on: EKVX
HCT-15 = tested on: HCT-15
HL-60 = tested on: HL-60
KM12 = tested on: KM12
LOX IMVI = tested on: LOX IMVI
NCI-H522 = tested on: NCI-H522
OVCAR-4 = tested on: OVCAR-4
RXF 393 = tested on: RXF 393
SNB-75 = tested on: SNB-75
SR = tested on: SR
UACC-257 = tested on: UACC-257
UACC-62 = tested on: UACC-62
UO-31 = tested on: UO-31
MDA-MB-231 = tested on: MDA-MB-231
NCI/ADR-RES = tested on: NCI/ADR-RES
T47D = tested on: T47D

Structure (SMILES) | GI50 (CAKI-1) | GI50 (CCRF-CEM) | GI50 (EKVX) | GI50 (HCT-15) | GI50 (HL-60) | GI50 (KM12) | GI50 (LOX IMVI) | GI50 (NCI-H522) | GI50 (OVCAR-4) | GI50 (RXF 393) | GI50 (SNB-75) | GI50 (SR) | GI50 (UACC-257) | GI50 (UACC-62) | GI50 (UO-31) | GI50 (MDA-MB-231) | GI50 (NCI/ADR-RES) | GI50 (T47D)
Cc1ccc(NC(=O)/C(Cl)=C(/Cl)C(=O)O)cc1 | 17.3 µM (inactive) | 2.12 µM (inactive) | 16.1 µM (inactive) | 15.6 µM | 1.64 µM (inactive) | 18.7 µM (inactive) | 17.1 µM (inactive) | 1.9 µM (inactive) | 18.2 µM (inactive) | 31 µM (inactive) | 17.7 µM (inactive) | 18.2 µM (inactive) | 22 µM (inactive) | 15.9 µM (inactive) | 17.8 µM (inactive) | – | – | –
Cn1c(=O)ccc2cc(C(=O)c3ccccc3)ccc21 | 39.4 µM (inactive) | 69.7 µM (inactive) | 34.2 µM (inactive) | 53.3 µM | 23.6 µM (inactive) | > 100 µM (inactive) | 57.3 µM (inactive) | 20.4 µM (inactive) | 46.9 µM (inactive) | – | 12.3 µM (inactive) | – | – | 14.6 µM (inactive) | – | – | – | –
CCN(CC)C(=O)N1CCN(C=S)CC1 | – | > 100 µM (inactive) | > 100 µM (inactive) | > 100 µM | > 100 µM (inactive) | > 100 µM (inactive) | > 100 µM (inactive) | > 100 µM (inactive) | > 100 µM (inactive) | > 100 µM (inactive) | > 100 µM (inactive) | > 100 µM (inactive) | > 100 µM (inactive) | > 100 µM (inactive) | > 100 µM (inactive) | – | – | –
CN(C)CCNC(=O)c1cccc2c1nc(-c1ccc(F)cc1)c1ccccc12 | 3.27 µM (inactive) | 1.97 µM (inactive) | 9.38 µM (inactive) | 2.67 µM | 1.22 µM (inactive) | 5.93 µM (inactive) | 1.83 µM (inactive) | – | 5.94 µM (inactive) | 3.2 µM (inactive) | 10.7 µM (inactive) | – | 2.95 µM (inactive) | 3.09 µM (inactive) | 1.64 µM (inactive) | – | – | –
CCOc1ccccc1Nc1nc(C)c(C(=O)CC(=O)C(=O)Nc2ccccc2)s1 | 47.8 µM (inactive) | 39.1 µM (inactive) | 42.4 µM (inactive) | 41.9 µM | 20.3 µM (inactive) | 45.6 µM (inactive) | 40.7 µM (inactive) | 30.9 µM (inactive) | 11 µM (inactive) | 99.1 µM (inactive) | 25.2 µM (inactive) | 49.7 µM (inactive) | 50.9 µM (inactive) | 37.9 µM (inactive) | 32.2 µM (inactive) | – | – | –
O=[N+]([O-])c1ccc(-c2ccc(C3=Nn4c(CNc5ccccc5Cl)nnc4SC3)o2)cc1 | > 100 µM (inactive) | – | – | 12.9 µM | > 100 µM (inactive) | > 100 µM (inactive) | 42.7 µM (inactive) | > 100 µM (inactive) | – | – | > 100 µM (inactive) | > 100 µM (inactive) | > 100 µM (inactive) | > 100 µM (inactive) | > 100 µM (inactive) | – | – | –
CCOC(=O)C(C)(C)Oc1ccc2c(-c3ccc(Cl)cc3)c(-c3ccc(Cl)cc3)c(=O)oc2c1 | – | > 100 µM (inactive) | > 100 µM (inactive) | > 100 µM | 68.7 µM (inactive) | – | > 100 µM (inactive) | – | > 100 µM (inactive) | 93.8 µM (inactive) | > 100 µM (inactive) | > 100 µM (inactive) | > 100 µM (inactive) | > 100 µM (inactive) | > 100 µM (inactive) | – | – | –
Nc1nc(O)c2c(ncn2CC(O)CO)n1 (stereo unspecified) | > 100 µM (inactive) | > 100 µM (inactive) | > 100 µM (inactive) | > 100 µM | > 100 µM (inactive) | > 100 µM (inactive) | > 100 µM (inactive) | > 100 µM (inactive) | > 100 µM (inactive) | > 100 µM (inactive) | > 100 µM (inactive) | > 100 µM (inactive) | > 100 µM (inactive) | > 100 µM (inactive) | > 100 µM (inactive) | – | – | –
CNC(=O)CCNC(=O)CCC(=O)OC | > 100 µM (inactive) | – | – | – | – | > 100 µM (inactive) | – | – | > 100 µM (inactive) | > 100 µM (inactive) | – | – | – | > 100 µM (inactive) | > 100 µM (inactive) | > 100 µM (inactive) | > 100 µM (inactive) | > 100 µM (inactive)
OC1[C@H]([C@H]2CCCC[C@@H]2O)CCC[C@@H]1[C@@H]1CCCC[C@H]1O (stereo partly specified) | > 100 µM (inactive) | > 100 µM (inactive) | > 100 µM (inactive) | > 100 µM | > 100 µM (inactive) | > 100 µM (inactive) | > 100 µM (inactive) | > 100 µM (inactive) | > 100 µM (inactive) | > 100 µM (inactive) | > 100 µM (inactive) | > 100 µM (inactive) | > 100 µM (inactive) | > 100 µM (inactive) | > 100 µM (inactive) | – | – | –
CCOC(=O)C(C)(C)Oc1ccc2c(-c3ccccc3)cc(=O)oc2c1 | – | 21.7 µM (inactive) | 43 µM (inactive) | 31.8 µM | 20.1 µM (inactive) | – | 20.2 µM (inactive) | – | 35.4 µM (inactive) | – | 12.9 µM (inactive) | 24.9 µM (inactive) | 28.7 µM (inactive) | 18.3 µM (inactive) | 23 µM (inactive) | – | – | –
